Among the data in BindingDB's records for doi:10.1021/jm011053+ (Institut De Chimie Pharmaceutique Albert Lespagnol, 2002) are Ki values, retold here.

As a reminder, the Ki is a dissociation constant, usually derived from enzyme kinetics or from competition with a known ligand. Higher therefore signals weaker binding.

This assay is described as follows: Inhibition of 2-[125I]iodomelatonin binding to Melatonin receptor 3 (MT3) of Syrian hamster brain membrane.
With `COc1ccc2c(c1)c(CCNC(C)=O)cn2C` [N-[2-(5-Methoxy-1-methyl-1H-indol-3-yl)-ethyl]-acetamide], the Ki amounted to 2.8 nM.

`COc1ccc2c(c(CCNC(C)=O)cn2C)c1[N+](=O)[O-]` [N-[2-(5-Methoxy-1-methyl-4-nitro-1H-indol-3-yl)-ethyl]-acetamide]: the Ki was found to be 0.31 nM.

In turn, `COc1ccc2[nH]cc(CCNC(C)=O)c2c1[N+](=O)[O-]` [N-(2-(5-methoxy-4-nitro-1H-indol-3-yl)ethyl)acetamide] displayed an inhibitory constant (Ki) of 1.1 nM.
